{"source": "paper PMC5477784", "about": "(MedChemComm, 2017)", "key": {"PRMT1 [1]": {"molecular_target": "T1, PRMT1 (Homo sapiens, UniProt Q99873)", "T1 sequence (Q99873 1-353 isoform Q99873-3, species assumed)": "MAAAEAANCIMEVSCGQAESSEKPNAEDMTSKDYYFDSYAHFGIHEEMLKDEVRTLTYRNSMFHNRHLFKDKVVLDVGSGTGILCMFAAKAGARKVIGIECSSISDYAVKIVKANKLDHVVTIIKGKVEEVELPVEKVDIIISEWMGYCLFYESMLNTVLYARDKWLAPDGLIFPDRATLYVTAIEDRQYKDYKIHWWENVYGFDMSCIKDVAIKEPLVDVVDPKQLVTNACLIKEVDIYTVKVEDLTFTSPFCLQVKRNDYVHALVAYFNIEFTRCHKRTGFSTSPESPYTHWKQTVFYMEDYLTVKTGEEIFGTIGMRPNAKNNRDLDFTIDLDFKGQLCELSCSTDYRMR", "experiment": "Mass spectrometric", "type": "biochemical", "conditions": "inhibitor 0.2 mM; PRMT1 1 μM, SAM 200 μM, H4-20 50 μM, 30°C, 3.5 h"}, "PRMT1 [2]": {"molecular_target": "T1, PRMT1", "experiment": "Radiometric gel assay with [14C]SAM and H4-20, phosphorimaging", "type": "biochemical", "conditions": "inhibitor 0.2 mM; PRMT1 0.1 μM, [14C]SAM 20 μM, H4-20 100 μM, 30 min, 30°C"}, "[3]": {"system": "other PRMTs including PRMT5", "conditions": "cited from earlier work"}}, "data": [{"smiles": "N=C(N)c1ccc(-c2ccc(-c3ccc(C(=N)N)cc3)o2)cc1", "note": "[Furamidine, furamidine]", "values": [{"measurement": "methyl transfer reaction H4-20 to dimethyl H4-20 (mass spectrum)", "setting": "PRMT1 [1]", "result": "incomplete inhibition"}, {"measurement": "methylation in radiometric gel assay", "setting": "PRMT1 [2]", "result": "methylation was still observed"}, {"measurement": "selectivity over the other PRMTs including PRMT5", "setting": "[3]", "result": "> 10", "unit": "fold"}]}]}
